Source: patent US8293506B2, “L-cysteine-producing bacterium and a method for producing L-cysteine” (Ajinomoto Co., Inc., priority 2009, dated 2012)

How the values were obtained:
DsbA protein = target: T1, DsbA protein (Escherichia coli, UniProt P0AEG4); assay: Oxidized and reduced states of DsbA protein (AMS modification, Western blotting); assay type: cell-based; details: wild-type strain, 5 mM cysteine, 20 minutes; FIG. 2
T1 construct: endogenous in cells; host or cells: E. coli BW25113 (wild-type strain, also with pYdeD)
From the text: The strains used in this experiment were the E. coli BW25113 strain (Andreas Haldimann and Barry L. Wanner, J. Bacteriol., 2001 November, 183 (21):6384-6393) as a wild-type parent strain, the dsbA-deficient JW3832 strain and dsbB-deficient JW5182 strain derived from BW25113 strain (Baba, T, et al., 2006, Mol. Syst. Biol., 2:2006.0008). As a plasmid carrying the dsbB gene, pDsbB (ASKA clone, Kitagawa, M. et al., 2005, DNA Res., 12:291-9) was used.
In order to distinguish the oxidized state and the reduced state of the DsbA protein, the protein was modified with AMS (4-acetamido-4′-maleimidyl-stilbene-2,2′-disulfonate) (Kadokura, H. et al., 2004, Science, 303, 534-537). Each of the wild-type strain, the dsbA-deficient strain, the dsbB-deficient strain, the wild-type strain +pYdeD and the dsbB-deficient strain +pDsbB was cultured overnight at 30° C. in 3 ml of LB medium, and the resulting culture was used as a preculture medium. The preculture medium was inoculated into the LB medium in a 1% amount, and culture was performed at 30° C. with shaking until OD660 reached 0.4 to 0.5. […]
The labeled protein was then separated by non-reduced SDS gel electrophoresis (12.5%), and then detected by Western blotting. […] The label was detected by using ECL Plus Western Blotting Detection Reagents (Amersham).

[1] = test system: wild-type strains (E. coli BW25113); assay: Screening of Keio collection on LB agar containing cysteine; assay type: cell-based, Escherichia coli; details: overnight at 37° C.
Experimental: The 3,985 clones of the Keio collection were cultured at 37° C. for 15 hours in 0.5 ml of LB liquid medium. This culture medium was stamped on LB agar media containing cysteine at different concentrations (0, 15, 20, 25 mM), and culture was performed overnight at 37° C. Clones that were cysteine sensitive at the growth inhibition concentration of cysteine for wild-type strains (20 mM) were visually selected. […] A dsbA gene-deficient strain was obtained as a clone showing particularly strong and distinctive cysteine sensitivity among the above candidates.

[2] = test system: to/C-deficient strain JW5503/pCA24; assay: Growth test on L agar medium containing cysteine, tolC-deficient strain; assay type: cell-based, Escherichia coli; details: L agar with 10, 15, 20 mM cysteine, 37° C. overnight; FIG. 1
From the text: (§1) Since a dsbA-deficient strain was obtained by the screening of the Keio Collection, growth of the gene-deficient strain was observed on the agar medium containing cysteine of different concentrations in order to analyze the sensitivity of that strain to cysteine in more detail. Furthermore, as for the to/C gene (Japanese Patent Application No. 2008-040167, Wiriyathanawudhiwong, N. et al., Appl. Microbiol. Biotechnol. (2009) 81:903-913), which was previously obtained in a similar manner, and of which deletion is known to induce cysteine sensitivity, a similar experiment was performed by using a to/C-deficient strain. The dsbA-deficient strain and to/C-deficient strain used in this experiment were JW3832 strain and JW5503 strain, respectively (both were included in the Keio collection), and their parent strain was the BW25113 strain (Andreas Haldimann, A. and Wanner, B. L., J. Bacteriol., 2001 November, 183 (21):6384-6393). The plasmids carrying the dsbA gene and the to/C gene for the complementation experiment were pDsbA and pTo1C (ASKA clone (Kitagawa, M., et al., 2005, DNA Res., 12:291-299)), and the vector used as the base of them was pCA24 (vector for ASKA clone (Kitagawa, M., et al., 2005, DNA Res., 12:291-299)). […]

OstA protein = assay: Oxidized and reduced states of OstA protein (AMS modification, Western blotting); assay type: cell-based, Escherichia coli; details: wild-type strain with pmyc-OstA, 5 mM L-cysteine; FIG. 3
From the text: Since it was elucidated that the reduced type DsbA was accumulated by cysteine (reduction stress), it was decided to investigate toxicity of cysteine and oxidized and reduced states of a protein in the periplasm. The OstA is a protein in the periplasm indispensable to growth, and requires disulfide bond formed by DsbA. In order to investigate the oxidized and reduced states of the OstA protein, the E. coli BW25113 strain as the wild-type parent strain and the dsbA-deficient JW3832 strain derived from the BW25113 strain were used, and the plasmid pmyc-OstA for expressing OstA fused with an Myc tag (Kadokura, H. et al., 2004, Science, 303, 534-537) was introduced into them. Under the same culture conditions as those of the aforementioned experiment for investigating the oxidized and reduced states of DsbA, addition of L-cysteine (final concentration: 5 mM) and modification of the protein with AMS (4-acetamido-4′-maleimidyl-stilbene-2,2′-disulfonate) were performed, and the OstA protein was detected by Western blotting. As the antibody, anti-Myc (mouse) was used in this experiment.

[3] = test system: dsbA-deficient strain JW3832/pCA24; assay: Growth test on L agar medium containing cysteine, dsbA-deficient strain; assay type: cell-based, Escherichia coli; details: L agar with 10, 15, 20 mM cysteine, 37° C. overnight; FIG. 1
From the text: as §1

T1 sequence (P0AEG4 20-208): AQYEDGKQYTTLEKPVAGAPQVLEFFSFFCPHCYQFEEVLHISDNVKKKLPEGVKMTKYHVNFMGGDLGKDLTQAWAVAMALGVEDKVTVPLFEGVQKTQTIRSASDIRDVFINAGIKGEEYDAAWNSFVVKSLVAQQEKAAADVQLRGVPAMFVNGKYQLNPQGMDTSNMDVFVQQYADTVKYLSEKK

## N[C@@H](CS)C(=O)O [cysteine, L-cysteine]
DsbA protein
  DsbA-DsbB complex after exposure to cysteine: markedly accumulated
  oxidized/reduced state of DsbA after exposure to cysteine: the reduced type DsbA accumulated
[1]
  growth inhibition concentration of cysteine for wild-type strains: 20 mM
[2]
  cysteine sensitivity (growth) compared with control strain BW25113/pCA24: marked cysteine sensitivity
OstA protein
  oxidized/reduced state of OstA after addition of cysteine: the reduced type accumulated
[3]
  cysteine sensitivity (growth) compared with control strain BW25113/pCA24: marked cysteine sensitivity
